Measured values reported in ChEMBL document CHEMBL3044555, “Metabolism of thymol and trans-anethole in larvae of Spodoptera litura and Trichoplusia ni (Lepidoptera: Noctuidae)” (J Agric Food Chem, 2004).

Columns and labels:
[1] = Drug excretion in 80 last instar Trichoplusia ni (cabbage looper) larvae feces assessed as side chain methyl group hydroxylated compound on at 0.1 % fwt, po by 1H/13C NMR analysis; type: ADME, organism-based; conditions: in vivo
[2] = Drug excretion in 80 last instar Trichoplusia ni (cabbage looper) larvae feces assessed as side chain methyl group hydroxylated compound on at 0.1 % fwt, po by TLC analysis; type: ADME, organism-based; conditions: in vivo
[3] = Drug excretion in 80 last instar Trichoplusia ni (cabbage looper) larvae feces assessed as unchanged parent compound at 0.1 % fwt, po measured after 3 days by 1H/13C NMR analysis; type: ADME, organism-based; conditions: in vivo, 72 h
[4] = Drug excretion in 80 last instar Spodoptera litura larvae feces assessed as side chain methyl group hydroxylated compound on at 0.1 % fwt, po by TLC analysis; type: ADME, organism-based; conditions: in vivo
[5] = Drug excretion in 80 last instar Spodoptera litura larvae feces assessed as thymol 3-O-beta-glucoside at 0.1 % fwt, po measured after 3 days by 1H/13C NMR analysis; type: ADME, organism-based; conditions: in vivo, 72 h
[6] = Drug excretion in 80 last instar Spodoptera litura larvae feces assessed as unchanged parent compound at 0.1 % fwt, po measured after 3 days by 1H/13C analysis; type: ADME, organism-based; conditions: in vivo, 72 h
[7] = Drug excretion in 80 last instar Trichoplusia ni (cabbage looper) larvae feces assessed as thymol 3-O-beta-glucoside at 0.1 % fwt, po measured after 3 days by TLC analysis; type: ADME, organism-based; conditions: in vivo, 72 h
[8] = Drug excretion in 30 last instar Trichoplusia ni (cabbage looper) larvae feces assessed as thymol 3-O-beta-glucoside at 100 ug administered topically on abdominal terga by TLC analysis; type: ADME; conditions: in vivo, topical_or_ocular
[9] = Drug excretion in 80 last instar Spodoptera litura larvae feces assessed as thymol 3-O-beta-glucoside at 0.1 % fwt, po measured after 3 days by TLC analysis; type: ADME, organism-based; conditions: in vivo, 72 h
[10] = Drug excretion in 80 last instar Trichoplusia ni (cabbage looper) larvae feces assessed as thymol 3-O-beta-glucoside at 0.1 % fwt, po measured after 3 days by 1H/13C NMR analysis; type: ADME, organism-based; conditions: in vivo, 72 h

Row | Compound | Drug excretion [1] | Drug excretion [2] [mg] | Drug excretion [3] | Drug excretion [4] [mg] | Drug excretion [5] | Drug excretion [6] | Drug excretion [7] [mg] | Drug excretion [8] | Drug excretion [9] [mg] | Drug excretion [10]
1 | C/C=C/c1ccc(OC)cc1 [ANETHOLE] | Active | 5.8 | Not Active | 5.8 | – | – | – | – | – | –
2 | Cc1ccc(C(C)C)c(O)c1 [THYMOL] | – | – | Active | – | Active | Active | 3.2 | Active | 3.2 | Active
